Measured values as given in US7964598B2 (The J. David Gladstone Institutes, priority 1995, dated 2011).
“Also recorded” adds a separate entry of the source.

Legend:
apoE3 = test: Aβ production assay, B103-APP cells incubated with apoE3; format: cell-based, rat; settings: FIG. 22
Description: (§1) Aβ production assay. Stable neuroblastoma B103 cell lines transfected with a wildtype hAPP cDNA construct (B 103-APP) were selected by growing them in Dulbecco's modified Eagle's medium (DMEM) containing 10% fetal calf serum (FBS) and 400 μg/ml G418. A cell line expressing APP at similar levels in mouse brains has been identified by RNase protection assay (RPA) and was used in the studies described below. To determine Aβ production, B103-APP cells were incubated with serum-free minimal essential medium (MEM) containing N2 supplements with or without apoE isoforms for 24 h at 37° C. After incubation, 50 μl of medium was collected and assayed for Aβ levels with an ELISA method. The cells were lysed, and cellular proteins were determined by the Lowry method. AP production was normalized to cellular protein.
(§2) Cell Culture. Rat neuroblastoma B103 cells stably expressing human wildtype APP (hAPP695wt) (Xu et al. ((1999) Proc. Natl. Acad. Sci. USA 96:7547-7552; Esposito, et al. (2004) J. Neurochem. 91:1260-1274) were generated in Dr. Lennart Mucke's laboratory at the Gladstone Institute of Neurological Disease and maintained in Dulbecco's modified Eagle's medium (DMEM) (GIBCO, Grand Island, N.Y.) containing 400 μg/ml G418, 10% fetal bovine serum, and 5% horse serum at 37° C. Twenty-four hours after plating into 48-well plates (1×10^5 cells per well), cells were washed twice with serum-free DMEM and cultured for another 24 h in DMEM containing 1% N-2 supplement (GIBCO) to induce differentiation. The cells were treated with either β-VLDL (25 μg/ml cholesterol), recombinant human apoE isoform-enriched β-VLDL (7.5 μg/ml apoE and 25 μg/ml cholesterol), or recombinant human apoE (7.5 μg/ml apoE) in fresh DMEM containing 1% N-2 supplement for an additional 24 h. In some experiments, RAP (25 nM or 1 μM) was added to the cells 1 h before apoE treatment.
(§3) Aβ Assay. Aβ secreted into the medium was detected with a sandwich enzyme-linked immunosorbent assay (ELISA), using mAb 266 as a capturing antibody and 3D6 as a detecting antibody, as described. Johnson-Wood et al. ((1997) Proc. Natl. Acad. Sci. USA 94:1550-1555). Aβ was quantified from a standard curve (Aβ42; Bachem, Torrance, Calif.) and normalized by total cellular protein.

Neuro-2a cells = test: Aβ-induced lysosomal leakage (cytosolic β-hexosaminidase); format: cell-based, mouse
Description: The cytosolic fraction was obtained by ultracentrifugation, and the cytosolic β-hexosaminidase activity was measured.
Quantitation of the lysosomal enzyme β-hexosaminidase activity in the cytosol indicates lysosomal leakage. […] After incubation the cells were washed and cytosolic fractions were isolated as described in Materials and Methods. The enzymatic activity of β-hexosaminidase was assayed in 20 μg of cytosolic protein for each sample.
Lysosomal leakage was quantitated by assaying cytosolic 0-hexosaminidase activity. […] Conditioned media were prepared as described above. Apoptosis was quantitated by measuring DNA fragmentation.

YFP-apoE4-CFP cells = test: MTT cytotoxicity assay; format: cell-based, mouse; settings: 5-10 μM
Text: (§4) Since the emission spectrum of CFP (460-520 nm) overlaps with the excitation spectrum of YFP (480-520 nm), FLEXstation (Molecular Devices) can be used to measure FRET in living cells expressing YFP-apoE3-CFP or YFP-apoE4-CFP in a high throughput manner. […] Thus, the ratio of FRET to CFP emission in cells expressing YFP-apoE4-CFP is much higher than that in those expressing YFP-apoE3-CFP (FIG. 31). […] Since the FLEXstation can read FRET in both cells and the culture media treated without or with various small molecules, this assay allows one to know whether a small molecule affects apoE4 domain interaction only in the medium (“medium FRET”) or also inside the cell (“intracellular FRET”). In addition, after measurement of the intracellular FRET, the cells can be incubated further with MTT to determine the cytotoxicity of the compound. Thus, the cell-based FRET assay can simultaneously provide three sets of data-intracellular FRET, medium FRET, and cytotoxicity.

[1] = tested on: apoE4 enhancement of Aβ production; test: Aβ production assay, B103-APP cells incubated with apoE4; format: cell-based, rat
Description: as §1, §2, §3

YFP-apoE4-CFP = target: T1, YFP-apoE4-CFP (Homo sapiens, UniProt P02649, C130R); test: Cell-based FRET assay, YFP-apoE4-CFP; settings: 5-20 μM
T1 construct: vector signal peptide (pFLAG-CMV3) (N); FLAG (N); expressed in transfected cells
T1 sequence (P02649 19-317 C130R): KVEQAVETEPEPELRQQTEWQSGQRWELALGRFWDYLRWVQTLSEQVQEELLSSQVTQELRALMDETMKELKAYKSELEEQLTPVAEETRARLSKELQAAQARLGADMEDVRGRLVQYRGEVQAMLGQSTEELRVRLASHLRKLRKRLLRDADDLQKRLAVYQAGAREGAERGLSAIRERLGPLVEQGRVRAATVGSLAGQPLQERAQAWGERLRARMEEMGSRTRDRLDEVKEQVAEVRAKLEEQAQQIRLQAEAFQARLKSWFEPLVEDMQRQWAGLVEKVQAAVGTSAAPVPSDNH
Text: (§5) Xu et al. (2004) J. Biol. Chem. 279:25511-25516. FRET—the non-radioactive transfer of photon energy from an excited fluorophore (donor) to another fluorophore (acceptor)—occurs only when the donor and acceptor are in close proximity (<100 Å). Thus, this approach can be used to measure nanometer scale distances.
(§6) Xu et al. (2004) J. Biol. Chem. 279:25511-25516. The constructs are depicted schematically in FIG. 29.
as §4
(§7) Quantifying FRET in Transfected Neuro-2a Cells—Stably transfected Neuro-2a cells expressing YFP-apoE3-CFP or YFP-apoE4-CFP at similar levels were selected by fluorescence activated cell sorter (FACS). YFP and CFP images of transfected cells were acquired with the Meta Detector, and their fluorescence intensities were analyzed with the mounted computer. The FRET signal was calculated as the ratio of YFP to CFP fluorescence intensity under CFP excitation. For each YFP-apoE-CFP construct, the FRET signal was measured in at least 12 cells from different fields.
(§8) Quantifying FRET in the Culture Medium—Neuro-2a cells stably expressing YFP-apoE3-CFP or YFP-apoE4-CFP and wildtype cells were grown in T175 flasks to 90% confluence and incubated with serum-free minimum essential medium containing N2 supplement for 24 h. The conditioned medium (20 ml/flask) was concentrated about 20-fold with Centriplus-YM-10 concentrators (Amicon, Bedford, Mass.), dialyzed against PBS, illuminated at the CFP excitation wavelength (430 nm), and scanned for emission spectrum. The FRET signal was calculated as the ratio of emission at 525 nm (YFP) to that at 475 nm (CFP). Conditioned medium from cells expressing apoE3-CFP or apoE4-CFP was used to determine baseline fluorescence in the absence of FRET.

YFP-apoE3-CFP = target: T2, YFP-apoE3-CFP (Homo sapiens, UniProt P02649); test: Cell-based FRET assay, YFP-apoE3-CFP
T2 construct: vector signal peptide (pFLAG-CMV3) (N); FLAG (N); expressed in transfected cells
T2 sequence (P02649 19-317): as the sequence (P02649 19-317 C130R) above, with R112C counted along it
Text: as §5, §6, §4, §7, §8

`O=S(=O)([O-])c1ccc2c(c1)c(Nc1ccc(S(=O)(=O)O)cc1)cc1c2nc2ccccc2[n+]1-c1ccccc1` [GIND-25, azocarmine-G] was tested, and the “effect on apoE3 (Aβ production)” value (apoE3) was “no effect”, the “lysosomal leakage, cells with medium alone or medium containing apoE3 plus Aβ1-42” value (Neuro-2a cells) was “no significant effect” and the “apoE4 potentiation of Aβ-induced lysosomal leakage” value (Neuro-2a cells; 5 μM, apoE4 conditioned medium, Aβ1-42 20 μM) was “block; also recorded: abolish”. The “cytotoxicity (MTT assay)” value (YFP-apoE4-CFP cells) was “did not cause significant cytotoxicity”, the “apoE4 enhancement of Aβ production” value ([1]; FIG. 22) was “abolished completely” and the “enhancement of Aβ production by apoE4” value ([1]; compound 5 μM preincubated with apoE 7.5 μg/ml 30 min, then 24 h with cells, FIG. 27D) was “abolish; also recorded: decreased Aβ production induced by apoE4 to levels similar to those induced by apoE3”. For the same compound, the “ratio of FRET to CFP emission in the cells expressing YFP-apoE4-CFP” value (YFP-apoE4-CFP; intracellular) was “decreased significantly”, the “ratio of FRET to CFP emission in media of YFP-apoE4-CFP cells” value (YFP-apoE4-CFP; medium) was “decreased significantly” and the “ratio of FRET to CFP emission in cells expressing YFP-apoE3-CFP” value (YFP-apoE3-CFP; intracellular) was “none of these compounds altered significantly”. The “ratio of FRET to CFP emission in media of YFP-apoE3-CFP cells” value (YFP-apoE3-CFP; medium) was “none of these compounds altered significantly”.
